This experiment has as its system Candida albicans. Briefly: Antifungal activity against Candida albicans ATCC 26790. Type of experiment: functional, organism-based.

Structures are written as SMILES. In brackets after ≈: the same amount, converted by molar mass. Non-standard residues stand in square brackets, D forms with d. Residues, ends and D or L forms follow the SMILES beside them. Dhb = C/C=C(\N)C(=O)O

A word on the MIC: it is the lowest concentration found to suppress growth. Low readings indicate a more susceptible organism, high ones a less susceptible organism. For orientation: IC50 means the concentration needed to halve the response being measured. A lower IC50 goes with greater potency in that assay.

As to `C/C=C1\NC(=O)[C@H](Cc2ccccc2)NC(=O)[C@H]([C@@H](C)CC)NC(=O)[C@H]([C@@H](C)CC)NC(=O)[C@H]([C@@H](C)O)NC(=O)[C@@H](CC(C)C)NC(=O)[C@H](CCCNC(=N)N)NC(=O)[C@H]2CCCN2C(=O)[C@H](C(C)C)NC(=O)[C@H](C(C)C)NC(=O)[C@H]([C@@H](C)O)NC(=O)[C@H]([C@@H](C)OC(C)=O)NC(=O)[C@H](C(C)C)NC1=O`, the lowest concentration to inhibit growth (MIC) was 32 µg/mL (≈ 21.8 µM).
`Clc1ccc(COC(Cn2ccnc2)c2ccc(Cl)cc2Cl)c(Cl)c1` (stereo not drawn) [MICONAZOLE] yielded a 50% inhibitory concentration (IC50) of 8 µg/mL (≈ 19.2 µM).
Regarding `C/C=C1\NC(=O)[C@H](C(C)C)NC(=O)[C@H](Cc2ccccc2)NC(=O)[C@H](C(C)C)NC(=O)[C@H](C(C)C)NC(=O)[C@H](C(C)C)NC(=O)[C@H]([C@@H](C)O)NC(=O)[C@H]([C@@H](C)CC)NC(=O)[C@H]([C@@H](C)O)NC(=O)[C@H](C(C)C)NC(=O)[C@H](CCSC)NC(=O)[C@H](Cc2ccc(O)cc2)NC(=O)[C@H](CCCNC(=N)N)NC1=O` (cyclo([Dhb]RYMVTITVVVFV)), inhibition of growth (MIC) required 64 µg/mL (≈ 42.9 µM).

The values above are taken from ChEMBL document CHEMBL1155701, “Two novel cyclic peptides with antifungal activity from the cyanobacterium Tolypothrix byssoidea (EAWAG 195)” (J Nat Prod, 2001).
